The source of these data is ChEMBL document CHEMBL2321818, “Embellicines A and B: absolute configuration and NF-κB transcriptional inhibitory activity” (J Med Chem, 2013).

The subject of data set [1] is K562. In words: Cytotoxicity against human K562 cells assessed as cell viability by trypan blue exclusion assay. The class given is functional, cell-based. The note with it: TDE = time-dependent effect.
In data set [2] the test system is K562. In words: Cytotoxicity against human K562 cells assessed as cell viability after 8 to 72 hrs by trypan blue exclusion assay. The data set is classed as functional, cell-based.
The test system of data set [3] is K562. The experiment in a line: (§1) Inhibition of TNFalpha-induced NFkappaB activation in human K562 cells incubated for 2 hrs prior to TNFalpha induction measured after 6 hrs by luciferase reporter gene assay. The class given is cell-based.
A short description of data set [4]: as §1. The class given is cell-based.
In data set [5] the test system is K562. The experiment in a line: Cytotoxicity against human K562 cells assessed as cell viability after 24 hrs by trypan blue exclusion assay. The data set is classed as functional, cell-based. Particulars: K562, 24 h.
The test system of data set [6] is K562. The experiment in a line: Cytotoxicity against human K562 cells assessed as cell viability after 8 hrs by trypan blue exclusion assay. The class given is functional, cell-based. Particulars: K562, 8 h.
The test system of data set [7] is K562. In words: Cytotoxicity against human K562 cells assessed as cell viability after 72 hrs by trypan blue exclusion assay. The class given is functional, cell-based. The note with it: K562, 72 h.
For data set [8], the system named is K562. The experiment in a line: Cytotoxicity against human K562 cells assessed as cell viability after 48 hrs by trypan blue exclusion assay. The class given is functional, cell-based. The note with it: K562, 48 h.
A short description of data set [9]: Selectivity ratio of IC50 for human PBMC cells to IC50 for human K562 cells. The class given is cell-based. Particulars: PBMC cells versus K562 cells, read-out: Ratio IC50.
In another data set the test system is A549. In words: Cytotoxicity against human A549 cells assessed as concentration required to inhibition cell proliferation after 120 hrs by Incucyte phase contrast microscopic analysis. The data set is classed as functional.
The test system of data set [10] is K562. The experiment in a line: Cytotoxicity against human K562 cells assessed as concentration required to inhibit cell proliferation after 120 hrs by Incucyte phase contrast microscopic analysis. The data set is classed as functional.
The next data set relates to PBMC. The experiment in a line: Cytotoxicity against human PBMC cells assessed as cell viability after 24 hrs by trypan blue exclusion assay. The data set is classed as cell-based.

SMILES strings stand for the structures.

In the case of `CC1=C[C@]2(C)C(=C(C)[C@@H]3[C@@H]4C[C@H](C)C[C@H](C)[C@H]4[C@H]4Oc5ccc(cc5)C[C@@]5(O)C=C(C(=O)N5)C(=O)[C@H]2[C@@H]43)[C@@H]1C`, the results for the Activity result in the data set with K562 [1] and in the data set with K562 [2] were “tde” and “Dose-dependent effect”, respectively. For the same compound, the inhibition entry in the data set with K562 [3] is “Dose-dependent effect”. In addition, the IC50 in [4] came out at 3040 nM; with K562 [5], 2860 nM; in the data set on K562 [6], 3470 nM; with K562 [7], 1200 nM; in the data set with K562 [8], 1280 nM.
As for `CC1=C[C@]2(C)C(=C(C)[C@@H]3[C@@H]4C[C@H](C)C[C@H](C)[C@H]4[C@H]4Oc5ccc(cc5)C[C@]5(O)NC(=O)/C(=C(/O)[C@H]2[C@@H]43)[C@@H]5O)[C@@H]1C`, the selectivity ratio in [9] turned out to be 40. The Activity result in the data set on K562 [1] was “tde”; in the data set with K562 [2] it was “Dose-dependent effect”. For the same compound, in the data set on K562 [3], the inhibition result is “Dose-dependent effect”. For the same compound, the IC50 came out at 352 nM in [4]; 323 nM with K562 [5]; 917 nM in the data set with K562 [6]; 210 nM with K562 [7]; 250 nM in the data set on K562 [8]; 12800 nM in the data set on PBMC. The INH entry in the data set on A549 and in the data set with K562 [10] was “>=0.5 uM” each time.

In general, IC50 refers to the concentration at which inhibition is half-maximal.
